Data: patent US8815915B2, “Benzofuran-2-sulfonamides pyridine derivatives as chemokine receptor modulators” (Allergan, Inc., priority 2012, dated 2014)

Target: T1, CCR2 receptor (Homo sapiens, UniProt P41597)
T1 construct: expressed in transfected cells
Assay: compound-induced calcium activity on FLIPR Tetra in HEK-Gqi5 cells stably expressing CCR2
Type: cell-based
Settings: CCR2 receptor, HEK-Gqi5 cells stably expressing CCR2, calcium FLIPR Tetra; for IC50: read-out: IC50
Method: HEK-Gqi5 cells stably expressing CCR2 were cultured in (DMEM high glucose, 10% FBS, 1% PSA, 400 μg/ml geneticin and 50 μg/ml hygromycin. Appropriate positive control chemokines (MCP-1, MIP1A or RANTES) was used as the positive control agonist for screening compound-induced calcium activity assayed on the FLIPR^Tetra. The drug plates were prepared in 384-well microplates using the EP3 and the MultiPROBE robotic liquid handling systems. Compounds were synthesized and tested for CCR2 activity.

T1 sequence (P41597 whole entry): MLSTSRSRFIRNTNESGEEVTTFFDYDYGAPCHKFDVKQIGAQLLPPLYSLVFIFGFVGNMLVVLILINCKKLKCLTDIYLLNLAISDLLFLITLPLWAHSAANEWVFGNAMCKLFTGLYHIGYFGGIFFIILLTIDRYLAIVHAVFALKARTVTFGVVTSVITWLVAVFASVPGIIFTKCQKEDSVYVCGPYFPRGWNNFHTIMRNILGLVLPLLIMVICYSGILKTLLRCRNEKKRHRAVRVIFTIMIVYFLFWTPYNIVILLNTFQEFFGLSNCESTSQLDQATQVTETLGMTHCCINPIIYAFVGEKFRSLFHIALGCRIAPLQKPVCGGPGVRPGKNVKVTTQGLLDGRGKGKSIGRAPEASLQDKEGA

| SMILES | % ANTAGONISM [%] | IC50 [nM] |
| --- | --- | --- |
| O=C(O)c1ccccc1C[S+]([O-])c1ncccc1NS(=O)(=O)c1cc2ccccc2o1 (centres unmarked) [Compound 59, 2-[({3-[(1-benzofuran-2-ylsulfonyl)amino]pyridin-2-yl}sulfinyl)methyl]benzoic acid] | 58 |  |
| Cc1cnc([S+]([O-])c2ccccc2)c(NS(=O)(=O)c2cc3ccccc3o2)c1 (centres unmarked) [Compound 45, N-[5-methyl-2-(phenylsulfinyl)pyridin-3-yl]-1-benzofuran-2-sulfonamide] | 105 | 455 |
| O=C(O)c1ccccc1C[S+]([O-])c1ncc(Cl)cc1NS(=O)(=O)c1cc2ccccc2o1 (centres unmarked) [Compound 43, 2-[({3-[(1-benzofuran-2-ylsulfonyl)amino]-5-chloropyridin-2-yl}sulfinyl)methyl]benzoic acid] | 90 |  |
| O=S(=O)(Cc1ccc[n+]([O-])c1)c1ncc(Cl)cc1NS(=O)(=O)c1cc2ccccc2o1 [Compound 7, N-(5-chloro-2-{[(1-oxidopyridin-3-yl)methyl]sulfonyl}pyridin-3-yl)-1-benzofuran-2-sulfonamide] | 100 | 130 |
| COC(=O)c1ccccc1C[S+]([O-])c1ncc(Cl)cc1NS(=O)(=O)c1cc2ccccc2o1 (centres unmarked) [Compound 37, methyl 2-[({3-[(1-benzofuran-2-ylsulfonyl)amino]-5-chloropyridin-2-yl}sulfinyl)methyl]benzoate] | 95 | 191 |
| O=S(=O)(Nc1cc(Cl)cnc1SCc1cccnc1)c1cc2ccccc2o1 [Compound 4, N-{5-chloro-2-[(pyridin-3-ylmethyl)thio]pyridin-3-yl}-1-benzofuran-2-sulfonamide] | 95 | 32 |
| O=C(O)c1cccc(Sc2ncc(Cl)cc2NS(=O)(=O)c2cc3ccccc3o2)c1 [Compound 48, 3-({3-[(1-benzofuran-2-ylsulfonyl)amino]-5-chloropyridin-2-yl}sulfanyl)benzoic acid] | 96 | 786 |
| COC(=O)c1ccccc1CSc1ncccc1NS(=O)(=O)c1cc2ccccc2o1 [Compound 56, methyl 2-[({3-[(1-benzofuran-2-ylsulfonyl)amino]pyridin-2-yl}sulfanyl)methyl]benzoate] | 92 | 1750 |
| Nc1cccc(C[S+]([O-])c2ncccc2NS(=O)(=O)c2cc3ccccc3o2)c1 (centres unmarked) [Compound 12, N-{2-[(3-aminobenzyl)sulfinyl]pyridin-3-yl}-1-benzofuran-2-sulfonamide] | 100 | 255 |
| O=S(=O)(Nc1cc(F)cnc1[S+]([O-])c1ccccc1)c1cc2ccccc2o1 (centres unmarked) [Compound 41, N-[5-fluoro-2-(phenylsulfinyl)pyridin-3-yl]-1-benzofuran-2-sulfonamide] | 97 | 68 |
| O=S(=O)(Cc1ccccc1)c1ncc(F)cc1NS(=O)(=O)c1cc2ccccc2o1 [Compound 17, N-[2-(benzylsulfonyl)-5-fluoropyridin-3-yl]-1-benzofuran-2-sulfonamide] | 101 | 43 |
| Cc1cnc([S+]([O-])Cc2ccccc2)c(NS(=O)(=O)c2cc3ccccc3o2)c1 (centres unmarked) [Compound 22, N-[2-(benzylsulfinyl)-5-methylpyridin-3-yl]-1-benzofuran-2-sulfonamide] | 103 | 25 |
| Cc1ncccc1Oc1ncc(Cl)cc1NS(=O)(=O)c1cc2ccccc2o1 [Compound 24, N-{5-chloro-2-[(2-methylpyridin-3-yl)oxy]pyridin-3-yl}-1-benzofuran-2-sulfonamide] | 90 | 34 |
| O=C(O)c1ccccc1Sc1ncc(Cl)cc1NS(=O)(=O)c1cc2ccccc2o1 [Compound 47, 2-({3-[(1-benzofuran-2-ylsulfonyl)amino]-5-chloropyridin-2-yl}sulfanyl)benzoic acid] | 102 | 1230 |
